Results from patent publication US8143257B2, “Substituted phenols as active agents inhibiting VEGF production” (PTC Therapeutics, Inc., priority 2004, dated 2012).

Tested on: hypoxia-inducible endogenous VEGF expression
Test: Assay to evaluate effect on hypoxia-inducible endogenous VEGF expression (VEGF ELISA, HeLa cells)
Type: cell-based
Conditions: HeLa cells cultured 24-48 hours under hypoxic conditions (1% O2, 5% CO2); VEGF in conditioned media by ELISA; read-out: ELISA EC50 (effective concentration required to lower the amount of VEGF translation by 50%)
Description: Assay to Evaluate Effect on Hypoxia-Inducible Endogenous VEGF Expression
The ability of the compounds of the invention to modulate hypoxia-inducible endogenous VEGF expression is analyzed as follows. VEGF protein levels are monitored by an ELISA assay (R&D Systems). Briefly, HeLa cells are cultured for 24-48 hours under hypoxic conditions (1% O2, 5% CO2, balanced with nitrogen) in the presence or absence of a compound of the invention. The conditioned media is then assayed by ELISA, and the concentration of VEGF is calculated from the standard ELISA curve of each assay.
A dose-response analysis is performed using the ELISA assay and conditions described above. A series of, e.g., seven different concentrations are analyzed. In parallel, a dose-response cytotoxicity assay is performed using Cell Titer Glo (Promega) under the same conditions as the ELISA to ensure that the inhibition of VEGF expression is not due to the cytotoxicity. Dose-response curves are plotted using percentage inhibition versus concentration of the compound, and EC50 and CC50 values are generated for each compound with the maximal inhibition set as 100% and the minimal inhibition as 0%.
The most preferred compounds of the invention are those with μM values of 3 or less.

Row | Compound | EC50 [µM]
1 | CC1CC(C)CN(C(=O)Oc2ccccc2Br)C1 (stereo not shown) [3,5-Dimethyl-piperidine-1-carboxylic acid 2-bromo-phenyl ester] | > 30
2 | Cc1ccc(OC(=O)N2CCCCC2C)c(Br)c1 (stereo not shown) [2-Methyl-piperidine-1-carboxylic acid 2-bromo-4-methyl-phenyl ester] | > 30
3 | Cc1ccc2cc(OC(=O)N3CCC(C)CC3)ccc2n1 [4-Methyl-piperidine-1-carboxylic acid 2-methyl-quinolin-6-yl ester] | > 30
4 | O=C(Oc1ccccc1Br)N1CCc2ccccc21 [2,3-Dihydro-indole-1-carboxylic acid 2-bromo-phenyl ester] | > 30

Same assay, conditions: Homo sapiens, HeLa, read-out: ELISA EC50 (effective concentration required to lower the amount of VEGF translation by 50%)

Row | Compound | EC50 [µM]
5 | NC(=O)C1(N2CCCCC2)CCN(C(=O)Oc2ccc3ccccc3c2Br)CC1 [4′-Carbamoyl-[1,4′]bipiperidinyl-1′-carboxylic acid 1-bromo-naphthalen-2-yl ester] | 6.54
6 | CN1CCN(C(=O)Oc2ncc3ccccc3c2Cl)CC1 [4-Methyl-piperazine-1-carboxylic acid 4-chloro-isoquinolin-3-yl ester] | > 10
7 | Cc1ccc(OC(=O)N2CCc3ccccc32)c(Br)c1 [2,3-Dihydro-indole-1-carboxylic acid 2-bromo-4-methyl-phenyl ester] | > 30
8 | CN(C(=O)Oc1ccc2cc(Br)ccc2c1)c1ccccc1 [Methyl-phenyl-carbamic acid 6-bromo-naphthalen-2-yl ester] | > 10
9 | Cc1ccc2cc(OC(=O)N3CCN(C)CC3)ccc2n1 [4-Methyl-piperazine-1-carboxylic acid 2-methyl-quinolin-6-yl ester] | > 30
10 | CN1CCN(C(=O)Oc2cc3ccccc3cn2)CC1 [4-Methyl-piperazine-1-carboxylic acid isoquinolin-3-yl ester] | > 30
11 | CN(C)C(=O)Oc1ccc2ccccc2c1Br [Dimethyl-carbamic acid 1-bromo-naphthalen-2-yl ester] | 4
12 | CC1CCCCN1C(=O)Oc1ccccc1Br (stereo not shown) [2-Methyl-piperidine-1-carboxylic acid 2-bromo-phenyl ester] | > 30

Same assay, conditions: Homo sapiens; HeLa cells cultured 24-48 hours under hypoxic conditions (1% O2, 5% CO2); VEGF in conditioned media by ELISA; read-out: ELISA EC50 (effective concentration required to lower the amount of VEGF translation by 50%)

Row | EC50 [µM] | Compound
13 | 0.259 | O=C(Oc1ccc2ccccc2c1Br)N1CCC(Cc2ccccc2)CC1 [4-Benzyl-piperidine-1-carboxylic acid 1-bromo-naphthalen-2-yl ester]
14 | > 10 | O=C(Nc1ccc2ccccc2c1Cl)N1CCN(c2ccccc2)CC1 [4-Phenyl-piperazine-1-carboxylic acid (1-chloro-naphthalen-2-yl)-amide]
15 | 18.2 | O=C(Oc1cc(Cl)c(Cl)cc1Cl)N1CCCCC1 [Piperidine-1-carboxylic acid 2,4,5-trichloro-phenyl ester]
16 | > 10 | O=C(Oc1ccc2ccccc2c1)N1CCCCC1 [Piperidine-1-carboxylic acid naphthalen-2-yl ester]
17 | > 10 | O=C(Nc1ccc2ccccc2c1Br)N1CCC(Cc2ccccc2)CC1 [4-Benzyl-piperidine-1-carboxylic acid (1-bromo-naphthalen-2-yl)-amide]
18 | > 30 | O=C(Oc1ccccc1Br)N1CCc2cccnc21 [2,3-Dihydro-pyrrolo[2,3-b]pyridine-1-carboxylic acid 2-bromo-phenyl ester]
19 | > 30 | CC(=O)c1c(OC(=O)N2CCCC2)ccc2ccccc12 [Pyrrolidine-1-carboxylic acid 1-acetyl-naphthalen-2-yl ester]
20 | > 5 | CS(=O)(=O)Nc1c(OC(=O)N2CCC(C(O)(c3ccccc3)c3ccccc3)CC2)ccc2ccccc12 [4-(Hydroxy-diphenyl-methyl)-piperidine-1-carboxylic acid 1-methanesulfonylamino-naphthalen-2-yl ester]
21 | > 30 | O=C(Oc1cc2ccccc2cn1)N1CCc2ccccc2C1 [3,4-Dihydro-1H-isoquinoline-2-carboxylic acid isoquinolin-3-yl ester]
22 | 0.794 | O=C(Nc1ccc2ccccc2c1Cl)N1CCC(C(O)(c2ccccc2)c2ccccc2)CC1 [4-(Hydroxy-diphenyl-methyl)-piperidine-1-carboxylic acid (1-chloro-naphthalen-2-yl)-amide]
23 | > 30 | O=C(Oc1ccc2cc(Br)ccc2c1Br)N1CCOCC1 [Morpholine-4-carboxylic acid 1,6-dibromo-naphthalen-2-yl ester]
24 | > 30 | Cc1ccc2cc(OC(=O)N3CCC(Cc4ccccc4)CC3)ccc2n1 [4-Benzyl-piperidine-1-carboxylic acid 2-methyl-quinolin-6-yl ester]
25 | 0.174 | O=C(Oc1ccc2ccccc2c1Br)N1CCc2ccccc2C1 [3,4-Dihydro-1H-isoquinoline-2-carboxylic acid 1-bromo-naphthalen-2-yl ester]
26 | > 30 | O=C(Oc1cc2ccccc2cn1)N1CCc2ccccc21 [2,3-Dihydro-indole-1-carboxylic acid isoquinolin-3-yl ester]
27 | 3.72 | O=C(Oc1c(Cl)cc(Cl)cc1Cl)N1CCC(Cc2ccccc2)CC1 [4-Benzyl-piperidine-1-carboxylic acid 2,4,6-trichloro-phenyl ester]
28 | > 30 | Cc1ccc2cc(OC(=O)N3CCCc4ccccc43)ccc2n1 [3,4-Dihydro-2H-quinoline-1-carboxylic acid 2-methyl-quinolin-6-yl ester]
29 | 4.39 | O=C(Nc1ccc2ccccc2c1)N1CCC(Cc2ccccc2)CC1 [4-Benzyl-piperidine-1-carboxylic acid naphthalen-2-ylamide]
30 | > 10 | O=C(Oc1ccc2cc(Br)ccc2c1)N1CCCCC1 [Piperidine-1-carboxylic acid 6-bromo-naphthalen-2-yl ester]

Row | EC50 [µM] | Compound
31 | 0.687 | CC1CCCCN1C(=O)Oc1ccc2ccccc2c1Br (stereo not shown) [2-Methyl-piperidine-1-carboxylic acid 1-bromo-naphthalen-2-yl ester]
32 | 0.764 | CC(=O)c1c(OC(=O)N2CC(C)CC(C)C2)ccc2ccccc12 (stereo not shown) [3,5-Dimethyl-piperidine-1-carboxylic acid 1-acetyl-naphthalen-2-yl ester]
33 | > 30 | CC1CC(C)CN(C(=O)Oc2c(Cl)cc(Cl)cc2Cl)C1 (stereo not shown) [3,5-Dimethyl-piperidine-1-carboxylic acid 2,4,6-trichloro-phenyl ester]
34 | > 10 | O=C(Nc1ccc2ccccc2c1)N1CCCCC1 [Piperidine-1-carboxylic acid naphthalen-2-ylamide]
35 | > 30 | O=C(Oc1c(Cl)cc(Cl)cc1Cl)N1CCCc2ccccc21 [3,4-Dihydro-2H-quinoline-1-carboxylic acid 2,4,6-trichloro-phenyl ester]
36 | > 30 | CC1CCCCN1C(=O)Oc1c(Cl)cc(Cl)cc1Cl (stereo not shown) [2-Methyl-piperidine-1-carboxylic acid 2,4,6-trichloro-phenyl ester]
37 | > 30 | Cc1ccc(OC(=O)N2CC(C)CC(C)C2)c(Br)c1 (stereo not shown) [3,5-Dimethyl-piperidine-1-carboxylic acid 2-bromo-4-methyl-phenyl ester]
38 | > 10 | COc1ccc2ccc(OC(=O)N3CCN(c4ccccc4)CC3)c(Br)c2c1 [4-Phenyl-piperazine-1-carboxylic acid 1-bromo-7-methoxy-naphthalen-2-yl ester]
39 | > 30 | CC1CCCCN1C(=O)Oc1cc2ccccc2cn1 (stereo not shown) [2-Methyl-piperidine-1-carboxylic acid isoquinolin-3-yl ester]
40 | > 5 | CS(=O)(=O)Nc1c(OC(=O)N2CCC(Cc3ccccc3)CC2)ccc2ccccc12 [4-Benzyl-piperidine-1-carboxylic acid 1-methanesulfonylamino-naphthalen-2-yl ester]
41 | 23 | O=C(Oc1c(Cl)cc(Cl)cc1Cl)N1CCCC1 [Pyrrolidine-1-carboxylic acid 2,4,6-trichloro-phenyl ester]
42 | 5.78 | O=C(Oc1c(Cl)cc(Cl)cc1Cl)N1CCN(c2ccccc2)CC1 [4-Phenyl-piperazine-1-carboxylic acid 2,4,6-trichloro-phenyl ester]
43 | > 30 | O=C(Oc1cc(Cl)c(Cl)cc1Cl)N1CCCC1 [Pyrrolidine-1-carboxylic acid 2,4,5-trichloro-phenyl ester]
44 | > 30 | O=C(Oc1ccccc1Br)N1CCC(Cc2ccccc2)CC1 [4-Benzyl-piperidine-1-carboxylic acid 2-bromo-phenyl ester]
45 | > 10 | CC1CC(C)CN(C(=O)Oc2ncc3ccccc3c2Cl)C1 (stereo not shown) [3,5-Dimethyl-piperidine-1-carboxylic acid 4-chloro-isoquinolin-3-yl ester]
46 | > 5 | CS(=O)(=O)Nc1c(OC(=O)N2CCCCC2)ccc2ccccc12 [Piperidine-1-carboxylic acid 1-methanesulfonylamino-naphthalen-2-yl ester]
47 | > 30 | Cc1ccc(OC(=O)N2CCC(Cc3ccccc3)CC2)c(Br)c1 [4-Benzyl-piperidine-1-carboxylic acid 2-bromo-4-methyl-phenyl ester]
48 | > 5 | CC1CC(C)CN(C(=O)Oc2ccc3ccccc3c2NS(C)(=O)=O)C1 (stereo not shown) [3,5-Dimethyl-piperidine-1-carboxylic acid 1-methanesulfonylamino-naphthalen-2-yl ester]

Row | Compound | EC50 [µM]
49 | CCC(NC(=O)Oc1ccc2ccccc2c1)(C(F)(F)F)C(F)(F)F [(1,1-Bis-trifluoromethyl-propyl)-carbamic acid naphthalen-2-yl ester] | > 30
